Test results taken from US20030180777A1, “Rapid identification of transcriptional regulatory domains” (priority 2002, published 2003).

How the values were obtained:
Type in all cases: cell-based
P2X7 [1] = target: T1, P2X7 (Mus musculus, UniProt Q9Z1M0); test: BzATP-induced EtBr uptake in Neuro-2A cells by FACS
T1 construct: mouse Neuro-2A cells (expressing P2X7); endogenous in cells; host or cells: mouse Neuro-2A cells
T1 sequence (Q9Z1M0 1-595): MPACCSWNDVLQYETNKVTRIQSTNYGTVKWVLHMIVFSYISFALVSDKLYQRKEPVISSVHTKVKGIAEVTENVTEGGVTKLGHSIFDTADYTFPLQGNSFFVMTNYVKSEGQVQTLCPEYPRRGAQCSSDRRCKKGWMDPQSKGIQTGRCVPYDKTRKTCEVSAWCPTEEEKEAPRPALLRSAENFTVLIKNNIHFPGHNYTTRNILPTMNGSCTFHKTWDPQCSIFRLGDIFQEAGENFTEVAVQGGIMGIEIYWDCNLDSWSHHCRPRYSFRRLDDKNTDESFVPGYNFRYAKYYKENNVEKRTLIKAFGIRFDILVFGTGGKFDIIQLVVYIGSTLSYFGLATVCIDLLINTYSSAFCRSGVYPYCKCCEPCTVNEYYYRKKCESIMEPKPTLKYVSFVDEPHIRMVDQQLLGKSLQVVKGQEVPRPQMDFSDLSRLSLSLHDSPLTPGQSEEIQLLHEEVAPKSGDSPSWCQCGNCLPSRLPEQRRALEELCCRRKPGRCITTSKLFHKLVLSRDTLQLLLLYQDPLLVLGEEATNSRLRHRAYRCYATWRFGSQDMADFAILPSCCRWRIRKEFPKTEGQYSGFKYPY
Method: To test the suitability of the P2X7 gene as a reporter for high-throughput screening for repression domains, mouse Neuro-2A cells (expressing P2X7) were transiently transfected with a plasmid expressing a zinc finger DNA-binding domain targeted to the P2X7 gene (ZFP #5493) linked to a KOX1 repression domain. Control Neuro-2A cells were transfected with a vector lacking both library sequences and ZFP-encoding sequences (i.e., empty vector). Cells were treated for 10 minutes with different concentrations of BzATP (ranging from 0 to 1 mM), and EtBr was then added to a final concentration of 10 μM. After 20 minutes, cells were harvested by centrifugation, washed in PBS and analyzed by FACS.

P2X7 [2] = target: T1, P2X7; test: BzATP-induced death of Neuro-2A cells
Method: To test this selection method, Neuro-2A cells were transiently transfected with empty vector (see Example 3 supra) or with a plasmid expressing a KOX1 repressor domain linked to the P2X7-targeted zinc finger binding domain ZFP #5493. 48 hours after transfection, cells were detached from the plate with Trypsin-EDTA, collected by centrifugation and resuspended in HKS assay buffer (125 mM KC1, 1 mM EDTA, 5 mM glucose, 20 mM HEPES, pH 7.4 adjusted with KOH). Resuspended cells were mixed with BzATP (final concentrations ranging from 0 to 1 mM) and plated onto 6 well plates (1×10^5 cells/well in 1 ml HKS). After a 2h incubation at 37° C. in a cell incubator, cells were washed with PBS, and growth medium (minimal essential medium with Earle's salts and non-essential amino acids, adjusted to contain 2 mM L-glutamine, 1.5 g/L Na bicarbonate, 1.0 mM Na pyruvate and 10% fetal bovine serum) was added to plates.

P2X7 [3] = target: T1, P2X7; test: BzATP-induced YO-PRO-1 uptake in Neuro-2A cells by flow cytometry; conditions: 0.2 mM BzATP, FIG. 1 left panel
Method: ZFP/KOX-1-expressing cells were also assayed for P2X7 activity by measuring their ability to take up the DNA-binding dye YO-PRO-1, as follows. Seven days after the initial BzATP treatment, pools of clones containing 2-5×10^5 cells were incubated with 0.2 mM BzATP for 10 minutes in HKS Buffer (125 mM KCl, 1 mM EDTA, 5 mM glucose, 20 mM HEPES-KOH, pH 7.4). YO-PRO-1 (Molecular Probes, Inc., Eugene, Oreg.) was added to a final concentration of 5 μM. After an additional 25 min incubation in the presence of the dye, the cells were washed with PBS, collected by centrifugation, resuspended in PBS, and analyzed by FACS on a Beckman-Coulter EPICS XL flow cytometer.

Substance: benzoylbenzoyl ATP [BzATP]
- EtBr accumulation at higher concentrations of BzATP (P2X7 [1]; BzATP above 0.04 mM, range tested up to 1 mM): induced significant accumulation of EtBr
- EtBr uptake at low concentrations of BzATP (P2X7 [1]; BzATP up to 0.04 mM): did not induce significant uptake of EtBr
- cell death at relatively low concentrations of BzATP (P2X7 [2]; BzATP >20 μM, cells transfected with either empty vector or the ZFP-KOX construct): some death of cells
- survival of cells transfected with empty vector (P2X7 [2]; BzATP concentrations >100 μM): almost no survival
- YO-PRO-1 uptake by control uninfected cells in the presence of BzATP (P2X7 [3]): substantial amounts of YO-PRO-1
